In brackets after ≈: the same amount, converted by molar mass. Read-outs that look alike come from different tables or passages of the source.
Key:
DLD-2 human colon tumor = assay: In vivo human tumor xenograft model, DLD-2 human colon tumor in nude mice; conditions: i.v. once daily for nine consecutive days, tumor growth inhibition, NCI criteria
Description: (§1) The DLD-2 human colon tumor, MX-1 human mammary carcinoma, and LX-1 human lung tumor were originally obtained from a surgically removed primary colon carcinoma, breast tumor, and non-small lung carcinoma, respectively. The human tumor lines were maintained by serial passage in athymic nude mice. The MX-1 human mammary carcinoma and LX-1 human lung tumor are established tumors used by the NCI. The DLD-2, MX-1, and LX-1 tumor models have been well characterized.
(§2) The mice used in these experiments were outbred Swiss mice or BALB/c mice bearing the nude (nu/nu) gene. On day 0 male and female mice weighing 22-30 g are inoculated with 0.2 mL of a 25% tumor mince. This mince is prepared by mincing fresh tumor tissue, grown subcutaneously in passage mice, in sterile physiological saline. Palpable tumors weighing approximately 50 mg appear in the mice within 7-10 days after inoculation. The mice are pair matched by tumor weight and sex into groups of ten each and the test compounds and vehicle control are administered intravenously (i.v.) once daily for nine consecutive days. A >20% decrease in body weight on day 5 following compound administration is considered an indication of toxicity. Tumor measurements and body weights are recorded once a week. Fifteen to 18 days after the initial injection the mice are weighed, sacrificed and the tumors excised and weighed.
(§3) The efficacy of the test compounds is determined by the extent of tumor growth inhibition in treated versus vehicle-treated control mice. Initial tumor weights (mg) are calculated from the tumor dimensions (mm) measured from caliper measurements, using the formula for a prolate ellipsoid (mg of tumor weight=(length×width^2)/2). Net tumor weights are calculated for each of the treated groups and the vehicle-treated control group by subtracting the initial tumor weight from the final tumor weight on day 15. Results are expressed as a percentage decrease relative to the mean tumor weight for the control vehicle-treated group. [formula]
(§4) The criteria of the National Cancer Institute (NCI) for activity in the in vivo cancer models were used. Tumor growth inhibition of 58-89% in the DLD-2 assay is considered moderate activity and inhibition of ≥90% is condidered good to excellent activity.

[1] = test system: MX-1 human mammary carcinoma; assay: In vivo human tumor xenograft model, MX-1 human mammary carcinoma in nude mice; conditions: i.v. once daily for nine consecutive days, NCI criteria
Description: as §1, §2, §3, §4

[2] = test system: murine leukemia L1210 cells; assay: In vitro growth inhibition of L1210 cells (MTT); assay type: cell-based; conditions: Mus musculus
Experimental: L1210 cells were maintained in RPMI-1640 a medium supplemented with 10% heat inactivated fetal bovine serum and […] (RPMI-L). B16 cells were maintained in RPMI-1640 medium supplemented with 15% heat inactivated fetal bovine serum and antiobiotics (RPMI-C).
Exponentially growing murine leukemia L1210 cells (1×10^3 cells) in 0.1 mL medium were seeded on day 0 in a 96-well microtiter plate. On day 1, […] aliquot of medium containing graded concentrations of test analogs was added to the initial volume. After incubation at 37° C. in a humidified incubator for 3 days, the plates were centrifuged briefly and […] of the growth medium was removed. Cell cultures were incubated with 50 μL of 3-(4,5-dimethylthiazol-2-yl)-2,5-diphenyltetrazolium bromide (MTT; 1 mg/ml in Dulbecco's phosphate buffer saline) for 4 hours at 37° C. The resulting purple formazan precipitate was solubilized with 200 μL of 0.04N HCl in isopropyl alcohol. Absorbance was read in a Titertek Multiskan MCC scaning well spectrophotometer (Flow Laboratories) at a test wavelength of 570 nm and a reference wavelength of 630 nm.
The ID50 values were determined by a computer program that fit all of the data (8 determinations per concentration and 12 concentrations per test analog) to the following equation:
Y=((Am-Ao)/(1+(X/ID50)n))+Ao
where: Am=absorbance of the control cells; Ao=absorbance of the cells in the presence of highest drug concentration; Y=observed absorbance; X=drug concentration; ID50 =dose of drug that inhibits the growth of cells to one half that of the control cells.

LX-1 human lung tumor = assay: In vivo human tumor xenograft model, LX-1 human lung tumor in nude mice; conditions: i.v. once daily for nine consecutive days, NCI criteria
Description: as §1, §2, §3, §4

Row | IC50 ([2]; 72 h, murine leukemia L1210 cells, 3 days incubation, MTT, read-out: ID50 (the source's name)) [µg/mL] | Compound | activity against DLD-2 human colon tumors (DLD-2 human colon tumor) | activity in the MX-1 human breast tumor model [1] | IC50 ([2]; L1210, 72 h, read-out: ID50) [µg/mL] | activity against LX-1 human lung tumors (LX-1 human lung tumor)
1 |  | C[C@@H](CNCCNC[C@H](C)N1C(=O)c2cccc3cc([N+](=O)[O-])cc(c23)C1=O)N1C(=O)c2cccc3cc([N+](=O)[O-])cc(c23)C1=O [Example 1, (S,S)-2,2'-[1,2-ethanediylbis[imino(1-methyl-2,1-ethanediyl)]]-bis[5-nitro-1H-benz[de]isoquinoline-1,3(2H)-dione]methanesulfonate (1:2)] | excellent to outstanding activity | good to excellent activity (inhibition of ≥90% is condidered good to excellent activity) | 0.047 (≈ 0.0752 µM) | 
2 |  | C[C@H](CN1C(=O)c2cc([N+](=O)[O-])cc3cc([N+](=O)[O-])cc(c23)C1=O)NCCN[C@H](C)CN1C(=O)c2cc([N+](=O)[O-])cc3cc([N+](=O)[O-])cc(c23)C1=O [Example 32] |  |  | 0.057 (≈ 0.0798 µM) | 
3 |  | C[C@@H](CN1C(=O)c2cccc3cc([N+](=O)[O-])cc(c23)C1=O)NCCN[C@@H](C)CN1C(=O)c2cccc3cc([N+](=O)[O-])cc(c23)C1=O [Example 27, (S,S)-2,2'-[1,2-ethanediylbis[imino(2-methyl-2,1-ethanediyl)]]-bis[5-nitro-1H-benz[de]isoquinoline-1,3(2H)-dione]methanesulfonate (1:2)] | excellent to outstanding activity | excellent to outstanding activity | 0.0025 (≈ 0.004 µM) | good to excellent activity (inhibition of ≥90% is condidered good to excellent activity)
4 |  | CC(CN1C(=O)c2cccc3cc([N+](=O)[O-])cc(c23)C1=O)NCCNC(C)CN1C(=O)c2cccc3cc([N+](=O)[O-])cc(c23)C1=O (racemic) [Example 30] | excellent to outstanding activity | excellent to outstanding activity | < 0.01 | 
5 |  | C[C@H](CN1C(=O)c2cccc3c([N+](=O)[O-])ccc(c23)C1=O)NCCN[C@H](C)CN1C(=O)c2cccc3c([N+](=O)[O-])ccc(c23)C1=O [Example 31] |  |  | 0.19 (≈ 0.304 µM) | 
6 |  | CS(=O)(=O)O.CS(=O)(=O)O.C[C@H](CN1C(=O)c2cccc3cc([N+](=O)[O-])cc(c23)C1=O)NCCN[C@H](C)CN1C(=O)c2cccc3cc([N+](=O)[O-])cc(c23)C1=O [Example 29, (R,R)-2,2'-[1,2-ethanediylbis[imino(2-methyl)-2,1-ethanediyl)]-bis[5-nitro-1H-benz[de]isoquinoline-1,3(2H)-dione]-methanesulfonate (1:2)] | good to excellent activity (inhibition of ≥90% is condidered good to excellent activity) | excellent to outstanding activity | < 0.01 | good to excellent activity (inhibition of ≥90% is condidered good to excellent activity)
7 | 0.21 (≈ 0.393 µM) | C[C@@H](CN1C(=O)c2cccc3cccc(c23)C1=O)NCCN[C@@H](C)CN1C(=O)c2cccc3cccc(c23)C1=O [Example 28, (S,S)-2,2'-[1,2-ethanediylbis[imino(2-methyl-2,1-ethanediyl)]]-bis[^1 H-benz[de]isoquinoline-1,3(2H)-dione]methanesulfonate (1:2)] |  |  |  | 
8 |  | C[C@@H](CN[C@@H](C)CN1C(=O)c2cccc3cc([N+](=O)[O-])cc(c23)C1=O)NC[C@H](C)N1C(=O)c2cccc3cc([N+](=O)[O-])cc(c23)C1=O [Example 43] |  |  | 0.04 (≈ 0.0626 µM) | 
9 |  | CC(CNCCNCC(C)N1C(=O)c2cccc3cc([N+](=O)[O-])cc(c23)C1=O)N1C(=O)c2cccc3cc([N+](=O)[O-])cc(c23)C1=O (racemic) [Example 2, (Racemate+meso)-2,2'-[1,2-ethanediylbis[imino(1-methyl-2,1-ethanediyl)]]-bis[5-nitro-1H-benz[de]isoquinoline-1,3(2H) -dione]methanesulfonate (1:2)] | excellent to outstanding activity | excellent to outstanding activity | 0.062 (≈ 0.0993 µM) | good to excellent activity (inhibition of ≥90% is condidered good to excellent activity)
10 |  | C[C@H](CNCCNC[C@@H](C)N1C(=O)c2cccc3cc([N+](=O)[O-])cc(c23)C1=O)N1C(=O)c2cccc3cc([N+](=O)[O-])cc(c23)C1=O [Example 3, (R,R)-2,2'-[1,2-ethanediylbis[imino(1-methyl-2,1-ethanediyl)]]-bis[5-nitro-1H-benz[de]isoquinoline-1,3(2H)-dione]methanesulfonate (1:2)] | excellent to outstanding activity | excellent to outstanding activity | 0.051 (≈ 0.0817 µM) | good to excellent activity (inhibition of ≥90% is condidered good to excellent activity)
11 |  | C[C@H](CNCCNC[C@H](C)N1C(=O)c2cccc3cc([N+](=O)[O-])cc(c23)C1=O)N1C(=O)c2cccc3cc([N+](=O)[O-])cc(c23)C1=O [Example 26, (Meso)-2,2'-[1,2-ethanediylbis[imino(1-methyl-2,1-ethanediyl)]]-bis[5-nitro-1H-benz[de]isoquinoline-1,3(2H)-dione]methanesulfonate (1:2)] | excellent to outstanding activity |  | 0.074 (≈ 0.118 µM) | 
12 |  | C[C@@H](CN1C(=O)c2cccc3cc([N+](=O)[O-])cc(c23)C1=O)NCCN[C@@H](C)CN1C(=O)c2cccc3cc([N+](=O)[O-])cc(c23)C1=O (relative stereo) [Example 42] |  |  | < 0.001 | 

Source: US5461176A, “Processes for preparing bis-naphthalimides containing amino-acid derived linkers” (The Du Pont Merck Pharmaceutical Company, priority 1994, dated 1995)
